Values joined by “and” are separate entries in the source; they are usually repeats but may differ in a detail not shown here. Identical values can stand only once.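 Assay format: 96-well plates, 48-hour exposure. GI50 is the concentration that inhibits growth by half. At the TGI there is no net growth.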
Experiments:
Assay in all cases: NCI tumour cell line growth inhibition, 48 h
[1] = test system: OVCAR-4 ovarian
[2] = test system: UACC-257 melanoma
[3] = test system: RXF 393 renal
[4] = test system: CAKI-1 renal
[5] = test system: RPMI-8226 leukemia
[6] = test system: SF-295 CNS
[7] = test system: SF-268 CNS
[8] = test system: SK-OV-3 ovarian
[9] = test system: SNB-75 CNS
[10] = test system: HCT-15 colon
[11] = test system: KM12 colon
[12] = test system: 786-0 renal
[13] = test system: DMS 114 small cell lung
[14] = test system: EKVX NSCLC
[15] = test system: SK-MEL-28 melanoma
[16] = test system: COLO 205 colon
[17] = test system: LXFL 529 NSCLC
[18] = test system: M19-MEL melanoma
[19] = test system: DMS 273 small cell lung
[20] = test system: OVCAR-8 ovarian
[21] = test system: SNB-19 CNS
[22] = test system: HOP-62 NSCLC
[23] = test system: DLD-1 colon
[24] = test system: NCI-H23 lung
[25] = test system: M14 melanoma
[26] = test system: MALME-3M melanoma
[27] = test system: A498 renal
[28] = test system: HOP-18 NSCLC
[29] = test system: SW-620 colon
[30] = test system: RXF-631 renal
[31] = test system: OVCAR-5 ovarian
[32] = test system: SN12C renal
[33] = test system: U251 CNS
[34] = test system: MOLT-4 leukemia
[35] = test system: HCT-116 colon
[36] = test system: UO-31 renal
[37] = test system: XF 498 CNS
[38] = test system: SK-MEL-5 melanoma
[39] = test system: OVCAR-3 ovarian
[40] = test system: IGROV1 ovarian
[41] = test system: HCC-2998 colon
[42] = test system: TK-10 renal
[43] = test system: HOP-92 NSCLC
[44] = test system: HT29 colon
[45] = test system: ACHN renal
[46] = test system: SNB-78 CNS
[47] = test system: SK-MEL-2 melanoma
[48] = test system: NCI-H460 lung
[49] = test system: SF-539 CNS
[50] = test system: SR leukemia
[51] = test system: LOX IMVI melanoma
[52] = test system: UACC-62 melanoma
[53] = test system: A549 NSCLC
[54] = test system: P388/ADR leukemia
[55] = test system: P388 leukemia
[56] = test system: CCRF-CEM leukemia
[57] = test system: KM20L2 colon
[58] = test system: NCI-H522 lung
[59] = test system: K-562 leukemia

Compound: CCOc1c(Cc2ccccc2)c(=O)n2c3ccccc3n3c(=O)n(C)c(=O)c1c23
- TGI [1]: > 100 µM
- TGI [2]: > 100 µM
- TGI [3]: > 100 µM
- TGI [4]: > 100 µM
- TGI [5]: > 100 µM
- TGI [6]: > 100 µM
- TGI [7]: > 100 µM
- TGI [8]: > 100 µM
- TGI [9]: 81.2 µM
- TGI [10]: > 100 µM
- TGI [11]: > 100 µM
- TGI [12]: > 100 µM
- TGI [13]: > 100 µM
- TGI [14]: > 100 µM
- TGI [15]: > 100 µM
- TGI [16]: > 100 µM
- TGI [17]: > 100 µM
- TGI [18]: > 100 µM
- TGI [19]: > 100 µM
- TGI [20]: > 100 µM
- TGI [21]: > 100 µM
- TGI [22]: > 100 µM
- TGI [23]: > 100 µM
- TGI [24]: > 100 µM
- TGI [25]: > 100 µM
- TGI [26]: > 100 µM
- TGI [27]: > 100 µM
- TGI [28]: > 100 µM
- TGI [29]: > 100 µM
- TGI [30]: > 100 µM
- TGI [31]: > 100 µM
- TGI [32]: > 100 µM
- TGI [33]: > 100 µM
- TGI [34]: > 100 µM
- TGI [35]: > 100 µM
- TGI [36]: > 100 µM
- TGI [37]: > 100 µM
- TGI [38]: > 100 µM
- TGI [39]: > 100 µM
- TGI [40]: > 100 µM
- TGI [41]: > 100 µM
- TGI [42]: > 100 µM
- TGI [43]: > 100 µM
- TGI [44]: > 100 µM
- TGI [45]: > 100 µM
- TGI [46]: > 100 µM
- TGI [47]: > 100 µM
- TGI [48]: > 100 µM
- TGI [49]: > 100 µM
- TGI [50]: > 100 µM
- TGI [51]: > 100 µM
- TGI [52]: > 100 µM
- TGI [53]: > 100 µM

Compound: Nc1ncn(C2OC(CO)C(O)C2O)c(=O)n1 (configuration not stated)
- GI50 [13]: 9.47 µM and 1.17 µM
- TGI [14]: 215 µM and > 72.8 µM and 26.5 µM
- TGI [18]: > 250 µM and 28.4 µM
- TGI [28]: 250 µM and 125 µM
- GI50 [54]: 0.611 µM
- TGI [54]: 41.1 µM and 11.6 µM
- GI50 [55]: 0.55 µM
- TGI [55]: 36.7 µM and 7.61 µM
- TGI [37]: 61.2 µM and 11.4 µM

Compound: Nc1ccc(C(=O)N/C(=C\c2ccc3c(c2)OCO3)c2nc3ccc4c(c3[nH]2)C(=O)c2ccccc2C4=O)cc1
- TGI [1]: > 100 µM
- TGI [2]: > 100 µM
- TGI [3]: 42.4 µM
- TGI [4]: > 100 µM
- TGI [5]: > 100 µM
- TGI [6]: > 100 µM
- TGI [7]: > 100 µM
- TGI [56]: 92.6 µM
- TGI [8]: 79.7 µM
- TGI [9]: 57.8 µM
- TGI [10]: > 100 µM
- TGI [11]: > 100 µM
- TGI [12]: 72.2 µM
- TGI [13]: > 100 µM
- TGI [14]: > 100 µM
- TGI [15]: 78.5 µM
- TGI [16]: > 100 µM
- TGI [17]: > 100 µM
- TGI [18]: > 100 µM
- TGI [19]: > 100 µM
- TGI [57]: > 100 µM
- TGI [20]: > 100 µM
- TGI [21]: > 100 µM
- TGI [22]: > 100 µM
- TGI [23]: 45.2 µM
- TGI [24]: 56.5 µM
- TGI [25]: > 100 µM
- TGI [26]: > 100 µM
- TGI [27]: 93.9 µM
- TGI [29]: > 100 µM
- TGI [30]: > 100 µM
- TGI [31]: > 100 µM
- TGI [32]: > 100 µM
- TGI [33]: > 100 µM
- TGI [34]: > 100 µM
- TGI [35]: > 100 µM
- TGI [36]: 18.7 µM
- TGI [37]: > 100 µM
- TGI [58]: 71.9 µM
- TGI [38]: > 100 µM
- TGI [39]: > 100 µM
- TGI [40]: > 100 µM
- TGI [41]: > 100 µM
- TGI [42]: 85.7 µM
- TGI [43]: 95.7 µM
- TGI [44]: > 100 µM
- TGI [45]: 64.9 µM
- TGI [46]: > 100 µM
- TGI [59]: > 100 µM
- TGI [47]: 75.4 µM
- TGI [48]: > 100 µM
- TGI [49]: > 100 µM
- TGI [51]: > 100 µM
- TGI [52]: > 100 µM
- TGI [53]: 79.3 µM

Source: PubChem BioAssay (NCI)
